# Assay results from patent US8461328B2, “Tricyclic heterocyclic compounds, compositions and methods of use thereof” (Genentech, Inc., priority 2010, dated 2013).
# How the values were obtained:
# Format in all cases: biochemical
# [1] = biological target: T1, JAK3 (Homo sapiens, UniProt P52333); assay: JAK3 inhibition (Table 4); conditions: read-out: JAK3 Ki
# T1 construct: made in house; host or cells: SF9 insect cells (baculovirus)
# [2] = biological target: T2, JAK1 (Homo sapiens, UniProt P23458); assay: JAK1 inhibition (Table 4); conditions: read-out: JAK1 Ki
# T2 construct: made in house; host or cells: SF9 insect cells (baculovirus)
# T2 sequence (P23458 852-1154): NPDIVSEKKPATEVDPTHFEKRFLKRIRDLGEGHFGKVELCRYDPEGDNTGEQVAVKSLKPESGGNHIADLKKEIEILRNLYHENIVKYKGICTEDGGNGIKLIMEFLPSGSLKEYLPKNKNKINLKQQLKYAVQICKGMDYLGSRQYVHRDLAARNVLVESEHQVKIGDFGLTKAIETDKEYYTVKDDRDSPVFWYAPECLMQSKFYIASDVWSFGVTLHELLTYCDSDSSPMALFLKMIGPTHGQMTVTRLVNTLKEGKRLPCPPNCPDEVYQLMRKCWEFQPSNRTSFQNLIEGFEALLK
# [3] = biological target: T3, TYK2 (Homo sapiens, UniProt P29597); assay: TYK2 inhibition (Table 4)
# T3 construct: made in house; host or cells: SF9 insect cells (baculovirus)
# T3 sequence (P29597 873-1187): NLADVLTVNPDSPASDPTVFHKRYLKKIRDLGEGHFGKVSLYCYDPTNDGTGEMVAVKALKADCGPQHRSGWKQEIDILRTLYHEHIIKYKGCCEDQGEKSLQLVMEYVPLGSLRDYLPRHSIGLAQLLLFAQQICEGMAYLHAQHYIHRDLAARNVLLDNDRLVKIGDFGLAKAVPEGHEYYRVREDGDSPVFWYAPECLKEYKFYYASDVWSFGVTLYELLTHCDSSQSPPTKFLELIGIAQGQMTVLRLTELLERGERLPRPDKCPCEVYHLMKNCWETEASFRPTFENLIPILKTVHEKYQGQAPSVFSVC
# [4] = biological target: T4, JAK2 (Homo sapiens, UniProt O60674); assay: JAK2 inhibition (Table 4); conditions: read-out: JAK2 Ki
# T4 construct: made in house; host or cells: SF9 insect cells (baculovirus)
# T4 sequence (O60674 812-1132): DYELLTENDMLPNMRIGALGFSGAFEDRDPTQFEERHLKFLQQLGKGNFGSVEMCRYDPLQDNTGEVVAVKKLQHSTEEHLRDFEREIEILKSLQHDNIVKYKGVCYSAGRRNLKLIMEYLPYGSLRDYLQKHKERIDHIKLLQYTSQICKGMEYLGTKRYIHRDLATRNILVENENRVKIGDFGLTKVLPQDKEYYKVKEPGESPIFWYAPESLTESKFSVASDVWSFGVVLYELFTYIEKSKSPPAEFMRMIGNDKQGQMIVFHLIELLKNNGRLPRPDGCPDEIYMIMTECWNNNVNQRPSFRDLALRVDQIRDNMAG
# T1 sequence (P52333 783-1124): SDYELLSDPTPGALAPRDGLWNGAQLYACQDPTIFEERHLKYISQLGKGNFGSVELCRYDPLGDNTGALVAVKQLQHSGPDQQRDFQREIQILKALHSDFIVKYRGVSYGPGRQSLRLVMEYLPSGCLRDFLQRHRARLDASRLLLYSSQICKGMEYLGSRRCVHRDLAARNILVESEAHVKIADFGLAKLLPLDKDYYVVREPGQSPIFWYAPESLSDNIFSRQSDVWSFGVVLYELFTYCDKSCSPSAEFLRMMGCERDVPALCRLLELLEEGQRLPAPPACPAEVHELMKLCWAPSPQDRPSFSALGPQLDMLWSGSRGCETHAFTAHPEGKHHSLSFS
Compound,Ki [1],Ki [2],Ki [3],Ki [4]
"N#Cc1cccc(S(=O)(=O)N2CC[C@@H](n3cnc4cnc5[nH]ccc5c43)C2)c1 [Example 434, 3-[(R)-3-(6H-1,3,5,6-Tetraaza-as-indacen-1-yl)-pyrrolidine-1-sulfonyl]-benzonitrile]",1.2 µM,0.00567 µM,0.0325 µM,0.00622 µM
"CN(C)C(=O)CN1CCC(n2cnc3cnc4[nH]ccc4c32)CC1 [Example 62, N,N-Dimethyl-2-[4-(6H-1,3,5,6-tetraaza-as-indacen-1-yl)-piperidin-1-yl]acetamide]",0.391 µM,0.0214 µM,0.225 µM,0.0397 µM
"N#CCCN1CCC(n2c(Cc3ccc(C(N)=O)cc3)nc3cnc4[nH]ccc4c32)CC1 [Example 406, 4-{1-[1-(2-Cyano-ethyl)-piperidin-4-yl]-1,6-dihydro-1,3,5,6-tetraaza-as-indacen-2-ylmethyl}-benzamide]",0.614 µM,0.0678 µM,0.648 µM,0.204 µM
"CCCS(=O)(=O)N1CCC(n2c(CC(N)=O)nc3cnc4[nH]ccc4c32)CC1 [Example 117, 2-{1-[1-(Propane-1-sulfonyl)-piperidin-4-yl]-1,6-dihydro-1,2,3,5,6-tetraaza-as-indacen-2-yl}-acetamide]",0.746 µM,0.131 µM,1.53 µM,0.781 µM
"O=C1CC(n2cnc3cnc4[nH]ccc4c32)CCN1 (racemic) [Example 133, 4-(6H-1,2,3,5,6-Tetraaza-as-indacen-1-yl)-piperidin-2-one]",0.297 µM,0.0542 µM,0.798 µM,0.15 µM
"CS(=O)(=O)CC(=O)N1CCC[C@@H](n2cnc3cnc4[nH]ccc4c32)C1 [Example 79, 2-Methanesulfonyl-1-[(R)-3-(6H-1,3,5,6-tetraaza-as-indacen-1-yl)-piperidin-1-yl]ethanone]",0.0771 µM,0.0157 µM,0.167 µM,0.0223 µM
"COC(=O)N[C@@H]1CC[C@@H](n2c(C)nc3cnc4[nH]ccc4c32)C1 [Example 735, [(1R,3R)-3-(2-Methyl-6H-1,3,5,6-tetraaza-as-indacen-1-yl)-cyclopentyl]-carbamic acid methyl ester]",0.0546 µM,0.00152 µM,0.0192 µM,0.00567 µM
"O=C(NCc1nc2cnc3[nH]ccc3c2n1C1CCCCC1)C1CCC1 [Example 924, Cyclobutanecarboxylic acid (1-cyclohyl-1,6-dihydro-1,3,5,6-tetraaza-as-indacen-2-ylmethyl)-amide]",0.0541 µM,0.0177 µM,0.0725 µM,0.0957 µM
"N#Cc1ccc(CC(=O)N2CC[C@@H](n3cnc4cnc5[nH]ccc5c43)C2)cc1 [Example 431, 4-{2-Oxo-2-[(R)-3-(6H-1,3,5,6-tetraaza-as-indacen-1-yl)-pyrrolidin-1-yl]-ethyl}-benzonitrile]",3.52 µM,0.0371 µM,1.15 µM,0.175 µM
"CC(O)c1nc2cnc3[nH]ccc3c2n1C1CC2CCC1O2 (single isomer, unassigned) [Example 846, endo-1-[1-(7-Oxa-bicyclo[2.2.1]hept-2-yl)-1,6-dihydro-1,3,5,6-tetraaza-as-indacen-2-yl]-ethanol]",0.261 µM,0.0906 µM,0.749 µM,0.369 µM
"c1nc2c([nH]1)CCC(n1cnc3cnc4[nH]ccc4c31)C2 (racemic) [Example 707, 1-(4,5,6,7-Tetrahydro-3H-benzoimidazol-5-yl)-1,6-dihydro-1,2,3,5,6-tetraaza-as-indacene]",0.112 µM,0.0745 µM,0.391 µM,0.123 µM
"CCOC(=O)NCc1nc2cnc3[nH]ccc3c2n1C1CCN(CCC#N)CC1 [Example 493, {1-[1-(2-Cyano-ethyl)-piperidin-4-yl]-1,6-dihydro-1,3,5,6-tetraaza-as-indacen-2-ylmethyl}-carbamic acid ethyl ester]",0.0802 µM,0.0113 µM,0.121 µM,0.0362 µM
"CC(=O)N1CCC[C@@H](n2cnc3cnc4[nH]ccc4c32)C1 [Example 30, 1-[(R)-3-(6H-1,3,5,6-Tetraaza-as-indacen-1-yl)-piperidin-1-yl]ethanone]",0.139 µM,0.0292 µM,0.141 µM,0.0423 µM
"CC(C)OC(=O)N[C@H]1CC[C@H](n2cnc3cnc4[nH]ccc4c32)CC1 [Example 310, [(R)-4-(6H-1,3,5,6-Tetraaza-as-indacen-1-yl)-cyclohexyl]-carbamic acid isopropyl ester]",0.213 µM,0.00901 µM,0.197 µM,0.0263 µM
"CC(C)(O)CN1CC[C@@H](n2cnc3cnc4[nH]ccc4c32)C1 [Example 185, 2-Methyl-1-[(R)-3-(6H-1,2,3,5,6-tetraaza-as-indacen-1-yl)-pyrrolidin-1-yl]-propan-2-ol]",0.502 µM,0.105 µM,0.708 µM,0.162 µM
"N#CCCN1CCC(n2c(COCC(F)(F)F)nc3cnc4[nH]ccc4c32)CC1 [Example 834, 3-{4-[2-(2,2,2-Trifluoro-ethoxymethyl)-6H-1,3,5,6-tetraaza-as-indacen-1-yl]-piperidin-1-yl}-propionitrile]",0.0854 µM,0.0335 µM,0.637 µM,0.117 µM
"Cc1nc2cnc3[nH]ccc3c2n1C1(C)CCN(S(=O)(=O)c2cccnc2)CC1 [Example 740, 2-Methyl-1-[4-methyl-1-(pyridine-3-sulfonyl)-piperidinyl-4-yl]-1,6-dihydro-1,3,5,6-tetraaza-as-indacene]",0.404 µM,0.0217 µM,0.296 µM,0.0977 µM
"FC(F)(F)c1cccc(CN2CCC(n3cnc4cnc5[nH]ccc5c43)CC2)n1 [Example 314, 1-[1-(6Trifluoromethyl-pyridin-2-ylmethyl)-piperidin-4-yl]-1,6-dihydro-1,3,5,6-tetraaza-as-indacene]",0.0362 µM,0.00446 µM,0.124 µM,0.00744 µM
"CC(O)c1nc2cnc3[nH]ccc3c2n1C1CCN(C(=O)N(C)C)CC1 (racemic) [Example 528, 4-[2-(1-Hydroxy-ethyl)-6H-1,3,5,6-tetraaza-as-indacen-1-yl]-piperidine-1-carboxylic acid dimethylamide]",0.187 µM,0.156 µM,1.41 µM,0.396 µM
"c1cc2c(ncc3ncn(C4CCN(Cc5cocn5)CC4)c32)[nH]1 [Example 90, 1-(1-Oxazol-4-ylmethyl-piperidin-4-yl)-1,6-dihydro-1,3,5,6-tetraaza-as-indacene]",0.0469 µM,0.00681 µM,0.0631 µM,0.00875 µM
"O=C(N[C@H]1CC[C@H](n2cnc3cnc4[nH]ccc4c32)CC1)c1ccncc1 [Example 570, trans N-[4-(6H-1,3,5,6-Tetraaza-as-indacen-1-yl)-cyclohexyl]-isonicotinamide]",0.116 µM,0.0112 µM,0.0777 µM,0.01 µM
"CCC(COC)n1c(C(C)O)nc2cnc3[nH]ccc3c21 (single isomer, unassigned) [Example 182, 1-[1-(1-Methoxymethyl-propyl)-1,6-dihydro-1,2,3,5,6-tetraaza-as-indacen-2-yl]-ethanol]",0.154 µM,0.167 µM,0.955 µM,0.435 µM
"COCC(=O)N1CCC(n2c(Cc3conc3C)nc3cnc4[nH]ccc4c32)CC1 [Example 119, 2-Methoxy-1-{4-[2-(3-methyl-isoxazol-4-ylmethyl)-6H-1,2,3,5,6-tetraaza-as-indacen-1-yl]-piperidin-1-yl}-ethanone]",1.16 µM,0.0777 µM,1.03 µM,1.31 µM
"N#CCCN1CCC(n2c(CC3CC3)nc3cnc4[nH]ccc4c32)CC1 [Example 383, 3-[4-(2-Cyclopropylmethyl-6H-1,3,5,6-tetraaza-as-indacen-1-yl)-piperidin-1-yl]-propionitrile]",0.0214 µM,0.00988 µM,0.217 µM,0.0356 µM
"O=C1CC2CCC(n3cnc4cnc5[nH]ccc5c43)CC2N1 (racemic) [Example 111, 6-(6H-1,2,3,5,6-Tetraaza-as-indacen-1-yl)-octahydro-indol-2-one]",0.0265 µM,0.00487 µM,0.021 µM,0.0104 µM
"N#CCCN1CCC(n2c(COCC3CC3)nc3cnc4[nH]ccc4c32)CC1 [Example 839, 3-[4-(2-Cyclopropylmethoxymethyl-6H-1,3,5,6-tetraaza-as-indacen-1-yl)-piperidin-1-yl]-propionitrile]",0.0735 µM,0.0617 µM,0.595 µM,0.106 µM
"CC(C)(C)OC(=O)NC1CCCC(n2cnc3cnc4[nH]ccc4c32)C1 (single isomer, unassigned) [Example 477, [3-(6H-1,3,5,6-Tetraaza-as-indacen-1-yl)-cyclohexyl]-carbamic acid tert-butyl ester]",0.236 µM,0.0407 µM,0.799 µM,0.171 µM
"OC1CCCC(n2nnc3cnc4[nH]ccc4c32)C1 (single isomer, unassigned) [Example 552, 3-(6H-1,2,3,5,6-Pentaaza-as-indacen-1-yl)-cyclohexanol]",0.0118 µM,0.00659 µM,0.0242 µM,0.0102 µM
